Reference: patent publication US20200199127A1, “(HETERO)ARYLALKYLAMINO-PYRAZOLOPYRIDAZINE DERIVATIVES HAVING MULTIMODAL ACTIVITY AGAINST PAIN” (priority 2017, published 2020)

Tests used:
[1] = target: Human α2δ-1 subunit of Cav2.2 calcium channel (Homo sapiens, UniProt P54289); test: Human α2δ-1 subunit of Cav2.2 calcium channel assay, [3H]-Gabapentin binding; details: human α2δ-1 enriched membranes, 15 nM [3H]-Gabapentin; Ki as class symbol
Protocol: Human α2δ-1 Subunit of Cav2.2 Calcium Channel Assay
Human α2δ-1 enriched membranes (2.5 μg) were incubated with 15 nM of radiolabeled [3H]-Gabapentin in assay buffer containing Hepes-KOH 10 mM, pH 7.4. NSB (non specific binding) was measured by adding 10 μM pregabalin. The binding of the test compound was measured at five different concentrations. After 60 min incubation at 27° C., binding reaction was terminated by filtering through Multiscreen GF/C (Millipore) presoaked in 0.5% polyethyleneimine in Vacuum Manifold Station, followed by 3 washes with ice-cold filtration buffer containing 50 mM Tris-HCl, pH 7.4. Filter plates were dried at 60° C. for 1 hour and 30 μl of scintillation cocktail were added to each well before radioactivity reading. Readings were performed in a Trilux 1450 Microbeta radioactive counter (Perkin Elmer).

[2] = target: Human norepinephrine transporter (NET) (Homo sapiens, UniProt P23975); test: Binding assay to human norepinephrine transporter (NET), [3H]-Nisoxetin; details: human NET enriched membranes, 5 nM [3H]-Nisoxetin; Ki as class symbol
Human norepinephrine transporter (NET), sequence (P23975 whole entry): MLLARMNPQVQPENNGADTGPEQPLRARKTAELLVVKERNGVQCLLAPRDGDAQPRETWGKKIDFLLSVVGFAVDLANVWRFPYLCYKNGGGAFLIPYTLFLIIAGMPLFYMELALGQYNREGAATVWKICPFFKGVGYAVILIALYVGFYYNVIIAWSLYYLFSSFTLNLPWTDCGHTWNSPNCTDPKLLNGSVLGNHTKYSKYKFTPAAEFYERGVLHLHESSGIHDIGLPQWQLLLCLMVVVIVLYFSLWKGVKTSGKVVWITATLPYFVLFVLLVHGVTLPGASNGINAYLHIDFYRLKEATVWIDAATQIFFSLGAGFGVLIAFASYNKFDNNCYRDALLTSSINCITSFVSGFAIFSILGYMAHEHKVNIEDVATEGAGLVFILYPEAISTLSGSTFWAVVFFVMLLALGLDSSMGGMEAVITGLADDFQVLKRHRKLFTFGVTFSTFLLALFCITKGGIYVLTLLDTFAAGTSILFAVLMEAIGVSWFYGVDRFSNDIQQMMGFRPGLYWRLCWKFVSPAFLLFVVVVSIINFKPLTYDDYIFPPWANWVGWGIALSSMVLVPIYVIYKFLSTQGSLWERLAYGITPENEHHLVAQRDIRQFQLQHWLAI
Protocol: Binding Assay to Human Norepinephrine Transporter (NET).
Human norepinephrine transporter (NET) enriched membranes (5 μg) were incubated with 5 nM of radiolabeled [3H]-Nisoxetin in assay buffer containing 50 mM Tris-HCl, 120 mM NaCl, 5 mM KCl, pH 7.4.
NSB (non specific binding) was measured by adding 10 μM of desipramine. The binding of the test compound was measured at five different concentrations.. After 60 min incubation at 4° C., binding reaction was terminated by filtering through Multiscreen GF/C (Millipore) presoaked in 0.5% polyethyleneimine in Vacuum Manifold Station, followed by 3 washes with ice-cold filtration buffer containing 50 mM Tris-HCl, 0.9% NaCl, pH 7.4.
Filter plates were dried at 60° C. for 1 hour and 30 μl of scintillation cocktail were added to each well before radioactivity reading.

Human α2δ-1 subunit of Cav2.2 calcium channel, sequence (P54289 25-1103): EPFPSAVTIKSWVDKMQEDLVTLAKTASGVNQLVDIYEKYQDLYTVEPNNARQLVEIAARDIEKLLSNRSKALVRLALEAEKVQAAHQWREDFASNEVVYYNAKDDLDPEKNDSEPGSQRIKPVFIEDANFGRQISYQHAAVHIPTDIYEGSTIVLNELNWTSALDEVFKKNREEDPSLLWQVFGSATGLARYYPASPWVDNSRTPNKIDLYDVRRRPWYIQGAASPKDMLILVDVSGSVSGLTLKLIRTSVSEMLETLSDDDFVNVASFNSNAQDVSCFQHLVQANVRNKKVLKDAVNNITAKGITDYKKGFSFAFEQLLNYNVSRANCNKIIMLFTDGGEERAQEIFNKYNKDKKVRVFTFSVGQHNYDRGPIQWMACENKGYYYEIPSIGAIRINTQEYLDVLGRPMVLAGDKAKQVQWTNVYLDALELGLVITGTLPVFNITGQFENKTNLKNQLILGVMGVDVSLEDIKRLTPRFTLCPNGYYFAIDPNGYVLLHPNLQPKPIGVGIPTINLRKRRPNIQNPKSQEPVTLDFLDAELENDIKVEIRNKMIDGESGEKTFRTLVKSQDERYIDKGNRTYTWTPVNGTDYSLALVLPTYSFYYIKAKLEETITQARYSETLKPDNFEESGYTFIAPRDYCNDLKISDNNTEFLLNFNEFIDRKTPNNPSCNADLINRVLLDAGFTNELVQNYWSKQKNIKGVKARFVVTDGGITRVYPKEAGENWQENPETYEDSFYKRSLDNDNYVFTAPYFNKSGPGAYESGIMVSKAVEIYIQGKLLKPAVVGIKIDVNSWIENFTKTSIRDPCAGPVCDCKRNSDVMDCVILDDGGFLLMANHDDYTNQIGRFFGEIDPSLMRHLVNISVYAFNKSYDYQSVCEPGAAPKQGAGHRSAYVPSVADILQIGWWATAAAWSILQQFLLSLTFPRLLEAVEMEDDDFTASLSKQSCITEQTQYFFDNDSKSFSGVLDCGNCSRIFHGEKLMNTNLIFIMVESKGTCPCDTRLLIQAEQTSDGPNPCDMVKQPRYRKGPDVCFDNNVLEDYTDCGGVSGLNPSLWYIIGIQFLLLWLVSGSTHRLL

For CCOc1ccc(-n2nc3c(NCCC4(c5ccccn5)CCOC5(CCCC5)C4)nnc(C)c3c2C)c(F)c1 (centres unmarked) [Example 59, 2-(4-ethoxy-2-fluorophenyl)-3,4-dimethyl-N-(2-(9-(pyridin-2-yl)-6-oxaspiro[4.5]decan-9-yl)ethyl)-2H-pyrazolo[3,4-d]pyridazin-7-amine], the Ki [1] was no less than 5000 nM and the Ki [2] was greater than 1000 nM.
